Source: US9061984B2 (University of Louisville Research Foundation, Inc., priority 2008, dated 2015)
Converted amounts (≈) assume the structure as drawn. Read-outs that look alike come from different tables or passages of the source.

Experiments:
[1] = tested on: Trypanosoma cruzi (Tulahuen C4); experiment: In vitro anti-T. cruzi activity (β-galactosidase CPRG colorimetric assay in VERO monolayer); assay type: cell-based; conditions: Trypanosoma cruzi, TULAHUEN, Vero; for inhibition at 10 µg/mL: 120 h, 10 μg/mL of each compound, 120 hours, read-out: T. cruzi Inhib. (%)
peritoneal macrophages = experiment: Toxicity to peritoneal macrophages (Trypan Blue count); assay type: cell-based, BALB/C mouse; conditions: Mus musculus, Peritoneal macrophage, 48 h; Table 7; read-out: IC50 Macrophage
Experimental: Peritoneal macrophages were prepared as follows. Non-inflammatory macrophages (10^6) were collected from each BALB/C mouse. The cells adhered at 37° C. after 2 h under 5% CO2 in a CO2 incubator. The plates were then rinsed two to three times with 0.5 mL of RPMI+buffer MOPS without fetal calf serum to eliminate non-adhering cells. The supernatant on the plates was replaced by fresh medium (RPMI+glutamine+FCS+antibiotics), 0.5 mL of medium per well. To determine the toxicity of the compounds to macrophages, dilutions of compounds were added on a part of the macrophages prepared above. […] The medium was then removed and 1 μL of sterile Trypan Blue was added. Cover glasses N° 1 were left where cells were plated and then the number of macrophages in a microscope was determined with a haemocytometer. All experiments were performed in triplicate.

[2] = tested on: axenic amastigotes of L. amazonensis (strain MHOM/BR/76/LTB-012); experiment: microbe, parasite or virus in culture; conditions: Leishmania amazonensis, 72 h, read-out: IC50 L. amazonensis
[3] = Cytotoxicity on VERO cells (MTT), anti-T. cruzi study; conditions: African green monkey, VERO cells, IC50 - VERO Cytotoxicity, Table 2
VERO cells = experiment: as above; conditions: Chlorocebus sabaeus, Vero
[4] = Table 2, read-out: IC50 - T. cruzi
[5] = Table 3, read-out: IC50 T. cruzi

Structure (SMILES)	inhibition at 10 µg/mL [1] [%]	IC50 [1, 4] [µg/mL]	IC50 [1, 5] [µM]	IC50 (peritoneal macrophages) [µM]	IC50 [2] [µM]	IC50 [3] [µg/mL]	IC50 (VERO cells; read-out: IC50 VERO) [µM]	IC50 (VERO cells; read-out: IC50 VERO, Table 3) [µM]
C=CCOc1cc(OC)c(C(=O)/C=C/c2ccccc2)c(OCC=C)c1 [Compound I-08, (2E)-1-[2-Methoxy-4,6-bis(2-propenyloxy)phenyl]-3-(phenyl)-2-propen-1-one]	71.5	6.7	17.1	14.8	9.4	6 (≈ 17.1 µM)	17.1	–
C=CCOc1cc(OC)c(C(=O)/C=C/c2cccc(OC)c2)c(OCC=C)c1 [Compound I-11, (2E)-1-[2-Methoxy-4,6-bis(2-propenyloxy)phenyl]-3-(3-methoxyphenyl)-2-propen-1-one]	72.4	5.37	14.2	13.1	8.7	54 (≈ 142 µM)	–	142
C=CCOc1cc(OC)c(C(=O)/C=C/c2ccc([N+](=O)[O-])cc2)c(OCC=C)c1 [Compound I-13, (2E)-1-[2-Methoxy-4,6-bis(2-propenyloxy)phenyl]-3-(4-nitrophenyl)-2-propen-1-one]	68.6	1.62	4.1	13.2	8.3	5 (≈ 12.6 µM)	–	12.6
C=CCOc1cc(OC)c(C(=O)/C=C/c2ccc(Cl)cc2)c(OCC=C)c1 [Compound I-14, (2E)-3-(4-Chlorophenyl)-1-[2-methoxy-4,6-bis(2-propenyloxy)phenyl]-2-propen-1-one]	66.3	3.3	8.6	13	9.4	4 (≈ 10.4 µM)	–	10.4
C=CCOc1cc(OC)c(C(=O)/C=C/c2ccccc2F)c(OCC=C)c1 [Compound I-15, (2E)-3-(2-Fluorophenyl)-1-[2-methoxy-4,6-bis(2-propenyloxy)phenyl]-2-propen-1-one]	66.5	2.29	6.2	13.3	9.5	6 (≈ 16.3 µM)	–	16.3
